Results reported in US8283361B2 (AstraZeneca AB, priority 2008, dated 2012).
Structures can show the parent of a compound that is named as a salt.

Biological target: S. aureus GyrB ATPase (Staphylococcus aureus, UniProt P0A0K8)
Assay: biochemical
Settings: compound at 1 μM, one value per test if tested more than once; for inhibition at 1 µM: read-out: % Inhibition of S. aureus GyrB ATPase
Method in brief: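 IC50 values derive from 10-point titrations of compound (in DMSO). Phosphate formed from 250 μM ATP was quantified by acidic molybdate/malachite green after quenching.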

S. aureus GyrB ATPase, sequence (P0A0K8 whole entry): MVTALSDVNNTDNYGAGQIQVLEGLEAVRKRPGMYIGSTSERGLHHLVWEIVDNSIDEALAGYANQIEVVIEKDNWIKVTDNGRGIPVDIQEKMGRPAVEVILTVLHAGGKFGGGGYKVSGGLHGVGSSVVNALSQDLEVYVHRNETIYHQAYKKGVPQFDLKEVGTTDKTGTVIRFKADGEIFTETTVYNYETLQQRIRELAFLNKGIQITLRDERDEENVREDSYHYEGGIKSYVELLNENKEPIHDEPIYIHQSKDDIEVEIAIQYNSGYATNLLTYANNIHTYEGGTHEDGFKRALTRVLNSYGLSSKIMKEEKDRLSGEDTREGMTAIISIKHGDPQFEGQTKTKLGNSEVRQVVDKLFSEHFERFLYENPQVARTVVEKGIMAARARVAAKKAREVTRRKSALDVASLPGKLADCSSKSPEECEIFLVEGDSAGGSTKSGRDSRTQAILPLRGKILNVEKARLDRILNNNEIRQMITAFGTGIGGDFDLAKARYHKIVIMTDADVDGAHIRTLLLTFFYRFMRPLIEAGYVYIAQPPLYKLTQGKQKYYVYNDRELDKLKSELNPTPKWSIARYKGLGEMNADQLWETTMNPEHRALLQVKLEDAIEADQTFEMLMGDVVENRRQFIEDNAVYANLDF
S. aureus GyrB ATPase, sequence (P0AES4 whole entry, further chain): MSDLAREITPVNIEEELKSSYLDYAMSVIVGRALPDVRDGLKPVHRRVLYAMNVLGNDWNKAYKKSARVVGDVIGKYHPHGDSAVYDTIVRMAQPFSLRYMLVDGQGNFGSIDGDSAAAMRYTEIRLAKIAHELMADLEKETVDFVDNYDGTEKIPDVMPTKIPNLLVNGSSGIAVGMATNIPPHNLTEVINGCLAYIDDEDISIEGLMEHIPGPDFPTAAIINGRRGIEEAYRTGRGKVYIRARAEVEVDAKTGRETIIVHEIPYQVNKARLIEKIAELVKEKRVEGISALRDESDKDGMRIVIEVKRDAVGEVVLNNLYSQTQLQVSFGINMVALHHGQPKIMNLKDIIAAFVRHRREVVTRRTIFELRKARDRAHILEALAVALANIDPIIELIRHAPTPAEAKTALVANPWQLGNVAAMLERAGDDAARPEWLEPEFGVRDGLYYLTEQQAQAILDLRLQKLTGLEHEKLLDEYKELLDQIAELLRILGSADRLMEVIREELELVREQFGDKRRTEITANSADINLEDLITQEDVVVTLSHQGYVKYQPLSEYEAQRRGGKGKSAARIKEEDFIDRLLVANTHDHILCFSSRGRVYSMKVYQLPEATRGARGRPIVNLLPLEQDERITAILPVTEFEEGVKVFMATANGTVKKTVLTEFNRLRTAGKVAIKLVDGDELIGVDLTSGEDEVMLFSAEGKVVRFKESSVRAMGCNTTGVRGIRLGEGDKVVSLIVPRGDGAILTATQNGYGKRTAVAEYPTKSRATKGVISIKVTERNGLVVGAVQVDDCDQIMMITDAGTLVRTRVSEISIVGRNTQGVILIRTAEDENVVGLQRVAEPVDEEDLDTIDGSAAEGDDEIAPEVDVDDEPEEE

SMILES | inhibition at 1 µM [%] | % Inhibition of S. aureus GyrB ATPase (1 µM) [%]
CCNC(=O)Nc1cc(-c2nc(C(F)(F)F)cs2)c(-c2ccc3c(c2)c(=O)c(C(=O)O)cn3C2CN(C)C2)cn1 [Example 24, 6-(6-(3-ethylureido)-4-(4-(trifluoromethyl)thiazol-2-yl)pyridin-3-yl)-1-(1-methylazetidin-3-yl)-4-oxo-1,4-dihydroquinoline-3-carboxylic acid] | 99 | –
CCNC(=O)Nc1cc(-c2nc(C(F)(F)F)cs2)c(-c2ccc3c(c2)c(=O)c(C(=O)O)cn3[C@@H]2CCCC[C@H]2O)cn1 [Example 278, 6-(6-(3-ethylureido)-4-(4-(trifluoromethyl)thiazol-2-yl)pyridin-3-yl)-1-((1R,2R)-2-hydroxycyclohexyl)-4-oxo-1,4-dihydroquinoline-3-carboxylic acid] | 101 | –
CCNC(=O)Nc1cc(-c2nc(C(F)(F)F)cs2)c(-c2ccc3c(=O)c(C(=O)NCCN4CCN(C)CC4)cn(CCC(C)C)c3c2)cn1 [Example 340, 7-{6-[(ethylcarbamoyl)amino]-4-[4-(trifluoromethyl)-1,3-thiazol-2-yl]pyridin-3-yl}-1-(3-methylbutyl)-N-[2-(4-methylpiperazin-1-yl)ethyl]-4-oxo-1,4-dihydroquinoline-3-carboxamide] | 93 | –
CCNC(=O)Nc1cc(-c2nc(C(F)(F)F)cs2)c(-c2ccc3c(=O)c(C(=O)OCC)cn(CC)c3c2)cn1 [Example 42, Ethyl 1-ethyl-7-(6-(3-ethylureido)-4-(4-trifluoromethylthiazol-2-yl)pyridin-3-yl)-4-oxo-1,4-dihydroquinoline-3-carboxylate] | 113 | –
CCNC(=O)Nc1cc(-c2nc(C(F)(F)F)cs2)c(-c2ccc3c(=O)c(C(=O)NCCN(C)C)cn(CC4CC4)c3c2)cn1 [Example 377, 1-(Cyclopropylmethyl)-N-[2-(dimethylamino)ethyl]-7-{6-[(ethylcarbamoyl)amino]-4-[4-(trifluoromethyl)-1,3-thiazol-2-yl]pyridin-3-yl}-4-oxo-1,4-dihydroquinoline-3-carboxamide] | 106 | –
CCCNC(=O)Nc1cc(-c2nc(C(F)(F)F)cs2)c(-c2ccc3c(c2)c(=O)c(C(=O)NCCO)cn3CCOC)cn1 [Example 207, N-(2-hydroxyethyl)-1-(2-methoxyethyl)-4-oxo-6-(6-(3-propylureido)-4-(4-(trifluoromethyl)thiazol-2-yl)pyridin-3-yl)-1,4-dihydroquinoline-3-carboxamide] | 93 | –
CCNC(=O)Nc1cc(-c2nc(C(F)(F)F)cs2)c(-c2ccc3c(c2)c(=O)c(C(=O)NCCCO)cn3C(COC)COC)cn1 [Example 149, 1-(1,3-dimethoxypropan-2-yl)-6-(6-(3-ethylureido)-4-(4-(trifluoromethyl)thiazol-2-yl)pyridin-3-yl)-N-(3-hydroxypropyl)-4-oxo-1,4-dihydroquinoline-3-carboxamide] | 93 | –
CCNC(=O)Nc1cc(-c2nc(C(F)(F)F)cs2)c(-c2ccc3c(c2)c(=O)c(C(=O)O)cn3C(CC)CO)cn1 (stereo not drawn) [Example 93, 6-(6-(3-ethylureido)-4-(4-(trifluoromethyl)thiazol-2-yl)pyridin-3-yl)-1-(1-hydroxybutan-2-yl)-4-oxo-1,4-dihydroquinoline-3-carboxylic acid] | 95 | –
CCCNC(=O)Nc1cc(-c2nc(C(F)(F)F)cs2)c(-c2ccc3c(c2)c(=O)c(C(=O)O)cn3[C@H](CO)CC(C)C)cn1 [Example 87, (S)-1-(1-hydroxy-4-methylpentan-2-yl)-4-oxo-6-(6-(3-propylureido)-4-(4-(trifluoromethyl)thiazol-2-yl)pyridin-3-yl)-1,4-dihydroquinoline-3-carboxylic acid] | 96 | –
CCCNC(=O)Nc1cc(-c2nc(C(F)(F)F)cs2)c(-c2ccc3c(c2)c(=O)c(C(=O)NCCN(C)C)cn3CCC2CCOCC2)cn1 [Example 232, N-(2-(dimethylamino)ethyl)-4-oxo-6-(6-(3-propylureido)-4-(4-(trifluoromethyl)thiazol-2-yl)pyridin-3-yl)-1-(2-(tetrahydro-2H-pyran-4-yl)ethyl)-1,4-dihydroquinoline-3-carboxamide] | 98 | –
CCNC(=O)Nc1cc(-c2nc(C(F)(F)F)cs2)c(-c2ccc3c(=O)c(C(=O)NCCN(C)C)cn(CC(C)C)c3c2)cn1 [Example 344, N-[2-(dimethylamino)ethyl]-7-{6-[(ethylcarbamoyl)amino]-4-[4-(trifluoromethyl)-1,3-thiazol-2-yl]pyridin-3-yl}-1-(2-methylpropyl)-4-oxo-1,4-dihydroquinoline-3-carboxamide] | 95 | –
CCNC(=O)Nc1cc(-c2nc(C(F)(F)F)cs2)c(-c2ccc3c(c2)c(=O)c(C(=O)NCC(O)CO)cn3C2CC2)cn1 (stereo not drawn) [Example 328, 1-Cyclopropyl-N-(2,3-dihydroxy-propyl)-6-(6-(3-ethylureido)-4-(4-(trifluoromethyl)thiazol-2-yl)pyridin-3-yl)-4-oxo-1,4-dihydroquinoline-3-carboxamide] | 109 | –
CCNC(=O)Nc1cc(-c2nc(C(F)(F)F)cs2)c(-c2ccc3c(c2)c(=O)c(C(=O)O)cn3[C@@H](CC)CO)cn1 [Example 86, (S)-6-(6-(3-ethylureido)-4-(4-(trifluoromethyl)thiazol-2-yl)pyridin-3-yl)-1-(1-hydroxybutan-2-yl)-4-oxo-1,4-dihydroquinoline-3-carboxylic acid] | 98 | –
CCNC(=O)Nc1cc(-c2nc(C(F)(F)F)cs2)c(-c2ccc3c(=O)c(C(=O)NCCN4CCOCC4)cn(CC(C)C)c3c2)cn1 [Example 345, 7-{6-[(ethylcarbamoyl)amino]-4-[4-(trifluoromethyl)-1,3-thiazol-2-yl]pyridin-3-yl}-1-(2-methylpropyl)-N-[2-(morpholin-4-yl)ethyl]-4-oxo-1,4-dihydroquinoline-3-carboxamide] | 98 | –
CC(C)NC(=O)Nc1cc(-c2nc(C(F)(F)F)cs2)c(-c2ccc3c(c2)c(=O)c(C(=O)O)cn3CCC2CCN(C)CC2)cn1 [Example 202, 6-(6-(3-isopropylureido)-4-(4-(trifluoromethyl)thiazol-2-yl)pyridin-3-yl)-1-(2-(1-methylpiperidin-4-yl)ethyl)-4-oxo-1,4-dihydroquinoline-3-carboxylic acid] | 103 | –
CCNC(=O)Nc1cc(-c2nc(C(F)(F)F)cs2)c(-c2ccc3c(c2)c(=O)c(C(=O)O)cn3C[C@H]2CCN(CC)C2)cn1 [Example 249, (S)-1-((1-ethylpyrrolidin-3-yl)methyl)-6-(6-(3-ethylureido)-4-(4-(trifluoromethyl)thiazol-2-yl)pyridin-3-yl)-4-oxo-1,4-dihydroquinoline-3-carboxylic acid] | 113 | –
CCNC(=O)Nc1cc(-c2nc(C(F)(F)F)cs2)c(-c2ccc3c(=O)c(C(=O)NCCCO)cn(Cc4cccnc4)c3c2)cn1 [Example 359, 7-{6-[(ethylcarbamoyl)amino]-4-[4-(trifluoromethyl)-1,3-thiazol-2-yl]pyridin-3-yl}-N-(3-hydroxypropyl)-4-oxo-1-(pyridin-3-ylmethyl)-1,4-dihydroquinoline-3-carboxamide] | 92 | –
CCNC(=O)Nc1cc(-c2nc(C(F)(F)F)cs2)c(-c2ccc3c(c2)c(=O)c(C(=O)O)cn3CC2COCCN2)cn1 (stereo not drawn) [Example 294] | – | 109
CCNC(=O)Nc1cc(-c2nc(C(F)(F)F)cs2)c(-c2ccc3c(c2)c(=O)c(C(=O)O)cn3CC2CCN(C)CC2)cn1 [Example 94, 6-(6-(3-ethylureido)-4-(4-(trifluoromethyl)thiazol-2-yl)pyridin-3-yl)-1-((1-methylpiperidin-4-yl)methyl)-4-oxo-1,4-dihydroquinoline-3-carboxylic acid] | 95 | –
CCNC(=O)Nc1cc(-c2nc(C(F)(F)F)cs2)c(-c2ccc3c(c2)c(=O)c(C(=O)O)cn3[C@@H](CO)Cc2ccc(O)cc2)cn1 [Example 77, (R)-6-(6-(3-ethylureido)-4-(4-(trifluoromethyl)thiazol-2-yl)pyridin-3-yl)-1-(1-hydroxy-3-(4-hydroxyphenyl)propan-2-yl)-4-oxo-1,4-dihydroquinoline-3-carboxylic acid] | 110 | –
CCNC(=O)Nc1cc(-c2nc(C(F)(F)F)cs2)c(-c2ccc3c(c2)c(=O)c(C(=O)N2CCN(S(=O)(=O)N(C)C)CC2)cn3CCN(C)C)cn1 [Example 159, 4-(1-(2-(dimethylamino)ethyl)-6-(6-(3-ethylureido)-4-(4-(trifluoromethyl)thiazol-2-yl)pyridin-3-yl)-4-oxo-1,4-dihydroquinoline-3-carbonyl)-N,N-dimethylpiperazine-1-sulfonamide] | 105 | –
CCNC(=O)Nc1cc(-c2nc(C(F)(F)F)cs2)c(-c2ccc3c(c2)c(=O)c(C(=O)N2CCN(S(C)(=O)=O)CC2)cn3C(COC)COC)cn1 [Example 145, 1-{5-[1-(1,3-dimethoxypropan-2-yl)-3-{[4-(methylsulfonyl)piperazin-1-yl]carbonyl}-4-oxo-1,4-dihydroquinolin-6-yl]-4-[4-(trifluoromethyl)-1,3-thiazol-2-yl]pyridin-2-yl}-3-ethylurea] | 92 | –
CCNC(=O)Nc1cc(-c2nc(C(F)(F)F)cs2)c(-c2ccc3c(c2)c(=O)c(C(=O)O)cn3[C@H]2CCCN(CCN(CC)CC)C2)cn1 [Example 287, (S)-ethyl 1-(1-(2-(diethylamino)ethyl)piperidin-3-yl)-6-(6-(3-ethylureido)-4-(4-(trifluoromethyl)thiazol-2-yl)pyridin-3-yl)-4-oxo-1,4-dihydroquinoline-3-carboxylic acid trifluoroacetate] | 100 | –
CCNC(=O)Nc1cc(-c2nc(C(F)(F)F)cs2)c(-c2ccc3c(c2)c(=O)c(C(=O)O)cn3CC2CCOCC2)cn1 [Example 90, 6-(6-(3-ethylureido)-4-(4-(trifluoromethyl)thiazol-2-yl)pyridin-3-yl)-4-oxo-1-((tetrahydro-2H-pyran-4-yl)methyl)-1,4-dihydroquinoline-3-carboxylic acid] | 97 | –
